Experimental data published in patent US6395896B2, “Pyridazine derivatives, manufacturing method and related composition” (Shiseido Co., Ltd., priority 1999, dated 2002).

Legend:
[1] = Colorant stabilization effect (photostabilizer, sunlight exposure); parameters: key to Sunlight exposure (80 MJ) Appearance: A: No change; B: No almost change; C: Yes change; key to Sunlight exposure (80 MJ) ΔE: ΔE color difference (Lab) vs. color before sunlight exposure; conditions: photostabilizer 0.05 wt %
Protocol: First of all, the photostabilization effect and appearance change of a composition in each pigment were studied by the following evaluation formulation.
Each test sample was prepared. Observation of appearance change (visual evaluation) and measurement of color difference (ΔE) were carried out in samples exposed to sunlight exposure (around 80 MJ).
Color difference was measured by Lab coordinate system with spectrophotometer. Color difference was calculated on the basis of the color before sunlight exposure. Namely, from measured value (L1,a1,b1) before sunlight exposure, color difference (ΔE) was calculated by following formula.

[2] = Perfume stabilization effect (photostabilizer, sunlight exposure, judgement by perfumier); parameters: key to Sunlight exposure (80 MJ) Smell evaluation / Sunlight exposure (80 MJ) evaluation: A: No change; B: No almost change; C: Yes change
Protocol: Next, the photostabilization effect for each perfume was studied by the following evaluation formulation.
Each test sample was prepared. Change of smell of sample exposed to sunlight (80 MJ) was observed (judgement by perfumier).

[3] = Drug stabilization effect (photostabilizer, sunlight exposure); parameters: key to Sunlight exposure (80 MJ) Appearance: A: No change; B: No almost change; C: Yes change; conditions: photostabilizer 0.05, amounts wt %
Protocol: Next, the photo stabilization effect and changes in appearance in drug compositions were studied according to the following evaluation formulation.
Each test sample was prepared. Appearance changes of the samples exposed to sunlight (80 MJ) was observed (visual evaluation). Also, residual yield was measured by liquid chromatography.

[4] = Perfume stabilization effect (sequestering agent combination); parameters: key to Sunlight exposure (80 MJ) Smell evaluation: A: No change; B: No almost change; C: Yes change
Protocol: Next, for combinations with sequestering agent, photostabilization effect for each perfume was studied by the following evaluation formulation.
Each test sample was prepared. Smell change of samples exposed to sunlight (80 MJ) was observed (judgement by perfumier).

[5] = Pigment stabilization effect (sequestering agent combination); parameters: key to Sunlight exposure (80 MJ) Appearance: A: No change; B: No almost change; C: Yes change; key to Sunlight exposure (80 MJ) ΔE: color difference ΔE in Lab space vs. color before sunlight exposure; conditions: photostabilizer 0, amounts wt %
Protocol: First of all, the photostabilization effect and appearance changes of a composition for each pigment were studied by the following evaluation formulation.
Each test sample was prepared. Observation of appearance changes (visual evaluation) and measurement of color difference (ΔE) were carried out for samples exposed to sunlight (around 80 MJ).
Color difference was measured by Lab coordinate system with spectrophotometer. Color difference was calculated based on the color before sunlight exposure. Namely, from the measured value (L1,a1,b1) before sunlight exposure, color difference (ΔE) was calculated by following formula.

[6] = Red No. 106 0.00001 wt % + Yellow No. 5 0.0001 wt %
[7] = Red No. 106 0.00001 wt % + Yellow No. 203 0.0001 wt %
[8] = Red No. 213 0.00001 wt % + Blue No. 1 0.00001 wt %
[9] = Red No. 227 0.0001 wt % + Yellow No. 5 0.0001 wt %
[10] = Red No. 227 0.0001 wt % + Yellow No. 203 0.0001 wt %
[11] = Red No. 401 0.0001 wt % + Blue No. 1 0.00001 wt %
[12] = Red No. 401 0.0001 wt % + Green No. 3 0.00001 wt %
[13] = Yellow No. 203 0.0001 wt % + Yellow No. 5 0.0001 wt %
[14] = drug 2-o-α-α-glucopyranosyl-L-ascorbic acid 2.0
[15] = drug Dibutylhydroxytoluene 0.01
[16] = drug Dipotassium glycyrrhizinate 0.05
[17] = drug L-ascorbic acid 2-(dl-α-tocopheryl hydrogen phosphate) potassium salt 0.01
[18] = colorant Green No. 3 0.0001, sequestering agent 0.03 alone
[19] = colorant Red No. 106 0.0001, sequestering agent 0.02 alone
[20] = colorant Red No. 401 0.001, sequestering agent 0.1 alone
[21] = colorant Yellow No. 5 0.001, sequestering agent 0.02 alone

## COc1ccc(C(=O)c2ccccc2)c(O)c1 [2-Hydroxy-4-methoxybenzophenone, reference compound]
[1]; Blue No. 1 0.0001 wt %
  Sunlight exposure (80 MJ) Appearance: B
  Sunlight exposure (80 MJ) ΔE: 1.76
[1]; Green No. 3 0.0001 wt %
  Sunlight exposure (80 MJ) Appearance: B
  Sunlight exposure (80 MJ) ΔE: 0.75
[1]; [6]
  Sunlight exposure (80 MJ) Appearance: B
  Sunlight exposure (80 MJ) ΔE: 1.18
[1]; [7]
  Sunlight exposure (80 MJ) Appearance: B
  Sunlight exposure (80 MJ) ΔE: 1.11
[1]; Red No. 106 0.0001 wt %
  Sunlight exposure (80 MJ) Appearance: B
  Sunlight exposure (80 MJ) ΔE: 1.01
[1]; [8]
  Sunlight exposure (80 MJ) Appearance: B
  Sunlight exposure (80 MJ) ΔE: 1.26
[1]; Red No. 213 0.0001 wt %
  Sunlight exposure (80 MJ) Appearance: B
  Sunlight exposure (80 MJ) ΔE: 1.34
[1]; [9]
  Sunlight exposure (80 MJ) Appearance: B
  Sunlight exposure (80 MJ) ΔE: 0.88
[1]; [10]
  Sunlight exposure (80 MJ) Appearance: B
  Sunlight exposure (80 MJ) ΔE: 1.05
[1]; Red No. 227 0.0001 wt %
  Sunlight exposure (80 MJ) Appearance: B
  Sunlight exposure (80 MJ) ΔE: 0.71
[1]; [11]
  Sunlight exposure (80 MJ) Appearance: B
  Sunlight exposure (80 MJ) ΔE: 0.82
[1]; [12]
  Sunlight exposure (80 MJ) Appearance: B
  Sunlight exposure (80 MJ) ΔE: 1.06
[1]; Red No. 401 0.001 wt %
  Sunlight exposure (80 MJ) Appearance: B
  Sunlight exposure (80 MJ) ΔE: 1.18
[1]; Yellow No. 5 0.001 wt %
  Sunlight exposure (80 MJ) Appearance: B
  Sunlight exposure (80 MJ) ΔE: 0.82
[1]; [13]
  Sunlight exposure (80 MJ) Appearance: A
  Sunlight exposure (80 MJ) ΔE: 0.52
[1]; Yellow No. 203 0.001 wt %
  Sunlight exposure (80 MJ) Appearance: B
  Sunlight exposure (80 MJ) ΔE: 0.88
[2]; Base perfume Fruity 0.03 wt %, photostabilizer 0.1 wt %
  Sunlight exposure (80 MJ) Smell evaluation: B
[2]; Base perfume Muguet 0.03 wt %, photostabilizer 0.05 wt %
  Sunlight exposure (80 MJ) Smell evaluation: B
[2]; Base perfume Rose 0.03 wt %, photostabilizer 0.05 wt %
  Sunlight exposure (80 MJ) Smell evaluation: B
[2]; Base perfume Spicy 0.03 wt %, photostabilizer 0.2 wt %
  Sunlight exposure (80 MJ) Smell evaluation: B
[2]; Base perfume Woody 0.03 wt %, photostabilizer 0.1 wt %
  Sunlight exposure (80 MJ) Smell evaluation: B
[2]; Natural perfume Jasmine oil 0.03 wt %, photostabilizer 0.05 wt %
  Sunlight exposure (80 MJ) Smell evaluation: B
[2]; Natural perfume Lavender oil 0.03 wt %, photostabilizer 0.1 wt %
  Sunlight exposure (80 MJ) Smell evaluation: B
[2]; Natural perfume Neroli oil 0.03 wt %, photostabilizer 0.1 wt %
  Sunlight exposure (80 MJ) Smell evaluation: B
[2]; Natural perfume Rose oil 0.03 wt %, photostabilizer 0.05 wt %
  Sunlight exposure (80 MJ) Smell evaluation: B
[2]; Natural perfume Ylang ylang oil 0.03 wt %, photostabilizer 0.2 wt %
  Sunlight exposure (80 MJ) Smell evaluation: B
[2]; Synthetic perfume Citral 0.03 wt %, photostabilizer 0.1 wt %
  Sunlight exposure (80 MJ) Smell evaluation: B
[2]; Synthetic perfume Limonene 0.03 wt %, photostabilizer 0.05 wt %
  Sunlight exposure (80 MJ) Smell evaluation: B
[2]; Synthetic perfume Linalool 0.03 wt %, photostabilizer 0.05 wt %
  Sunlight exposure (80 MJ) Smell evaluation: B
[2]; Synthetic perfume Linalyl acetate 0.03 wt %, photostabilizer 0.1 wt %
  Sunlight exposure (80 MJ) Smell evaluation: B
[2]; Synthetic perfume Rose oxide 0.03 wt %, photostabilizer 0.2 wt %
  Sunlight exposure (80 MJ) Smell evaluation: B
[3]; [14]
  Sunlight exposure (80 MJ) Appearance: B
  Sunlight exposure (80 MJ) Residual yield [%]: 97.3%
[3]; [15]
  Sunlight exposure (80 MJ) Appearance: B
  Sunlight exposure (80 MJ) Residual yield [%]: 95.2%
[3]; [16]
  Sunlight exposure (80 MJ) Appearance: B
  Sunlight exposure (80 MJ) Residual yield [%]: 97.8%
[3]; [17]
  Sunlight exposure (80 MJ) Appearance: B
  Sunlight exposure (80 MJ) Residual yield [%]: 95.4%
[3]; drug Salicylic acid 0.1
  Sunlight exposure (80 MJ) Appearance: B
  Sunlight exposure (80 MJ) Residual yield [%]: 98.2%

## O=C([O-])CNCCN(CC(=O)[O-])CC(=O)[O-].[Na+].[Na+].[Na+] [Trisodium ethylenediamine triacetate]
[4]
  Sunlight exposure (80 MJ) Smell evaluation: C

## Sodium polyphosphate
[5]; [18]
  Sunlight exposure (80 MJ) Appearance: C
  Sunlight exposure (80 MJ) ΔE: 2.1
[5]; [19]
  Sunlight exposure (80 MJ) Appearance: C
  Sunlight exposure (80 MJ) ΔE: 2.92
[5]; [20]
  Sunlight exposure (80 MJ) Appearance: C
  Sunlight exposure (80 MJ) ΔE: 7.14
[5]; [21]
  Sunlight exposure (80 MJ) Appearance: C
  Sunlight exposure (80 MJ) ΔE: 1.75
